“Also recorded” adds a separate entry of the source. Bridge positions count the residues as written; N and C are the ends. Ends that are not written are not given here. Peptide text beside a SMILES is read from it.
Tests used:
human Kv1.3 (CHO) = target: T1, human Kv1.3 (CHO) (Homo sapiens, UniProt P22001); assay type: cell-based
T1 construct: expressed in transfected cells; host or cells: CHO

human Kv1.1 (HEK293) = target: T2, human Kv1.1 (HEK293) (Homo sapiens, UniProt Q09470); assay type: cell-based
T2 construct: expressed in transfected cells; host or cells: HEK293
T2 sequence (Q09470 whole entry): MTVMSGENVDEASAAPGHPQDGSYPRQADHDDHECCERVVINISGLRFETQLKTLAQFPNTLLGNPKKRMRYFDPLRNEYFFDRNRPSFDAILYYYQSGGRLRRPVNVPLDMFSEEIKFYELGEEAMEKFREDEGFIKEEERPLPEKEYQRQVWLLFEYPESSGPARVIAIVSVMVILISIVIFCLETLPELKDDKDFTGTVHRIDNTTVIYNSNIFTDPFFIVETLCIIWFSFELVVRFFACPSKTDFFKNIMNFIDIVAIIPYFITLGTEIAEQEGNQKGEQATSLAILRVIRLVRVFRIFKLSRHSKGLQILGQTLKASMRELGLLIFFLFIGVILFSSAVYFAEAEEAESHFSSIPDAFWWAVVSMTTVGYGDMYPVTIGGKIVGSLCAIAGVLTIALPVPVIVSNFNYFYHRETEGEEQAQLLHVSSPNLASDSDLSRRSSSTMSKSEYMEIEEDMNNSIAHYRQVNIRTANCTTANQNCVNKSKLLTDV

[1] = test system: IL-2 production in human whole blood; conditions: for IC50: read-out: WB/IL-2 (IC50)
[2] = test system: IL-2R on T cells in human whole blood; assay type: cell-based
[3] = test system: IFN-g production in human whole blood; assay type: cell-based; conditions: for IC50: read-out: WB/IFNg (IC50)
[4] = test system: CD40L on T cells in human whole blood; assay type: cell-based
human Kv1.3 channel = human Kv1.3 channel (Homo sapiens, UniProt P22001); assay type: cell-based
Sequence of human Kv1.3 channel (P22001 whole entry): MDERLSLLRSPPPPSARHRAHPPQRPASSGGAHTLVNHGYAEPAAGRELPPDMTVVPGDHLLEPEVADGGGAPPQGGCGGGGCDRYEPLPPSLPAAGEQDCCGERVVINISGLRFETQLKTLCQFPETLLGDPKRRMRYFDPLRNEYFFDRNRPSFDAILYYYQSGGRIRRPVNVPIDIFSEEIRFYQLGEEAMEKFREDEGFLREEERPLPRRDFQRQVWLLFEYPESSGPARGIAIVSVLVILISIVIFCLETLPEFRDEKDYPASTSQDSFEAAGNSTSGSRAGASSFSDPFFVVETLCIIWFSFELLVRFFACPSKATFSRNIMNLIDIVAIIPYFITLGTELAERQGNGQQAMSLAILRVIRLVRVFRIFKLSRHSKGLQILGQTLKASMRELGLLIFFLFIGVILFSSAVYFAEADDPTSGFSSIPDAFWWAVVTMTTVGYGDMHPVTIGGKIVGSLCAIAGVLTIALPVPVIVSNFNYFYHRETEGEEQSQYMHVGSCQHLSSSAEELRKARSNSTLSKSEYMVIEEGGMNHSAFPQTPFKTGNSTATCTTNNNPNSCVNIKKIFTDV

T1 sequence (P22001 whole entry): as above

Row | Molecule | IC50 [3] | IC50 [1] | further results
1 | CC[C@H](C)[C@@H]1NC(=O)[C@H](CCCCN)NC(=O)[C@@H](NC(=O)[C@H](CCCCN)NC(=O)[C@@H](NC(=O)[C@H](CC(N)=O)NC(=O)[C@@H](NC(=O)[C@@H](NC(=O)[C@@H](NC(=O)CN)C(C)C)[C@@H](C)CC)[C@@H](C)CC)C(C)C)CSSC[C@@H]2NC(=O)[C@H](CCCCN)NC(=O)CNC(=O)[C@H](Cc3ccccc3)NC(=O)[C@H](CCCNC(=N)N)NC(=O)[C@H](CCSC)NC(=O)CNC(=O)[C@H](C)NC(=O)[C@H](CCCCN)NC(=O)[C@H](CCCCN)NC(=O)[C@@H]3CSSC[C@@H](C(=O)N[C@H](C(=O)N4CCC[C@H]4C(=O)N[C@@H](CCCCN)C(=O)O)[C@@H](C)O)NC(=O)[C@H](Cc4c[nH]cn4)NC(=O)[C@H](CSSC[C@H](NC(=O)[C@H](CCC(N)=O)NC(=O)[C@H](CCCNC(=N)N)NC(=O)[C@H](CO)NC1=O)C(=O)N[C@@H](CC(C)C)C(=O)N[C@@H](CCC(=O)O)C(=O)N1CCC[C@H]1C(=O)N3)NC(=O)[C@H](CCCCN)NC(=O)CNC(=O)[C@H](CC(N)=O)NC(=O)[C@H](C)NC2=O [OSK1[Ala-29]] (H-GVIINVKCKISRQCLEPCKKAGMRFGKCANGKCHCTPK-OH; disulfide 8-28, 14-33, 18-35) |  |  | inhibition of the Kv1.3 current by IonWorks (in words) (human Kv1.3 (CHO)): potent inhibition of the Kv1.3 current; selectivity over Kv1.1 by IonWorks (in words) (human Kv1.1 (HEK293)): improved selectivity over Kv1.1; potency relative to cyclosporin A in blocking the cytokine response [1]: several orders of magnitude more potent
2 | Fc-L10-ShK[2-35]: human IgG1 Fc fused via 10 amino acid linker to ShK[2-35] |  |  | thapsigargin-induced upregulation of the IL-2R on T cells (in words) [2]: blocked; thapsigargin-induced IFN-g production (in words) [3]: suppressed; also recorded: blocked; thapsigargin-induced upregulation of CD40L on T cells (in words) [4]: blocked; stability in whole blood [1]: stable in whole blood at 37 °C for up to 48 hours
3 | Fc-L-KTX1: bacterially expressed Fc-linker-KTX1 peptibody |  |  | block of human Kv1.3 current (in words) (human Kv1.3 channel): concentration dependent block
4 | GGGGSGVIINVKCKISRQCLEPCKKAGMRFGKCMNGKCHCTPK [compound 1395] | 2.2 nM | 1.36 nM | 
5 | GIINVKCKISAQCLKPCRDAGMRFGKCMNGKCACTPK [compound 4916] | 2.24 nM | 1.5 nM | 
6 | GVIINVKCKISAQCLKPCKDAGMRFGKCMNGKCHCTPK [compound 1392] | 0.092 nM | 0.041 nM | 
7 | GVIINVKCKISRQCLKPCKDAGMRFGKCMNGKCACTPK [compound 4990] | 26.6 nM | 65.5 nM | 
8 | GVIINVKCKISRQCLKPCKDAGMRFGKCMNGKCHC [compound 1396] | 6.99 nM | 3.94 nM | 
9 | GVIINVKCKISRQCLKPCKDAGMRFGKCMNGKCHCGGG [compound 1274] | 3.64 nM | 2.64 nM | 
10 | GVIINVKCKISRQCLKPCKDAGMRFGKCMNGKCHCTPK [compound 296] | 1.32 nM | 1.58 nM | 
11 | GVIINVKCKISRQCLKPCKDAGMRFGKCMNGKCHCYPK [compound 298] | 0.923 nM | 0.639 nM | 
12 | IbTx: BKCa channel inhibitor peptide, Bachem (QFTDVDCSVSKECWSVCKDLFGVDRGKCMGKKCRCYQ; Definition of Artificial Sequence: Synthetic peptide) [reference compound] |  |  | thapsigargin-induced upregulation of the IL-2R on T cells (in words) [2]: no significant activity; thapsigargin-induced IFN-g production (in words) [3]: no significant activity; thapsigargin-induced upregulation of CD40L on T cells (in words) [4]: no significant activity; thapsigargin-induced IL-2 production (in words) [1]: no significant activity
13 | SEQ ID No: 4989: OSK1 analog without beta strand 1 (labeled des 1-7), Table 42 (CKISRQCLKPCKDAGMRFGKCMNGKCHC-NH2; ends and bridges not checked) |  |  | blockade of the whole blood cytokine response (IL-2, IFNg), in words [1]: still retain activity in blocking inflammation
14 | FcLoop-L2-ShK-L2: ShK inserted into the human IgG1 Fc loop with 2-Gly linkers (protein, Definition of Artificial Sequence: Synthetic protein) MDKTHTCPPCPAPELLGGPSVFLFPPKPKDTLMISRTPEVTCVVVDVSHEDPEVKFNWYVDGVEVHNAKTKPREEQYNSTYRVVSVLTVLHQDWLNGKEYKCKVSNKALPAPIEKTISKAKGQPREPQVYTLPPSRDELGGRSCIDTIPKSRCTAFQCKHSMKYRLSFCRKTCGTCGGTKNQVSLTCLVKGFYPSDIAVEWESNGQPENNYKTTPPVLDSDGSFFLYSKLTVDKSRWQQGNVFSCSVMHEALHNHYTQKSLSLSPGK |  |  | IC50 values, whole blood cytokine response [1]: pM range; blockade of the whole blood cytokine response (IL-2, IFNg), in words [1]: potent blockade of the whole blood cytokine response
15 | FcLoop-L2-OsK1-L2: OsK1 inserted into the human IgG1 Fc loop with 2-Gly linkers (protein, Definition of Artificial Sequence: Synthetic protein) MDKTHTCPPCPAPELLGGPSVFLFPPKPKDTLMISRTPEVTCVVVDVSHEDPEVKFNWYVDGVEVHNAKTKPREEQYNSTYRVVSVLTVLHQDWLNGKEYKCKVSNKALPAPIEKTISKAKGQPREPQVYTLPPSRDELGGGVIINVKCKISRQCLEPCKKAGMRFGKCMNGKCHCTPKGGTKNQVSLTCLVKGFYPSDIAVEWESNGQPENNYKTTPPVLDSDGSFFLYSKLTVDKSRWQQGNVFSCSVMHEALHNHYTQKSLSLSPGK |  |  | IC50 values, whole blood cytokine response [1]: pM range; blockade of the whole blood cytokine response (IL-2, IFNg), in words [1]: potent blockade of the whole blood cytokine response
16 | MGGHHHHHHGGGPSVFLFPPKPKDTLMISRTPEVTCVVVDVSHEDPEVKFNWYVDGVEVHNAKTKPREEQYNSTYRVVSVLTVLHQDWLNGKEYKCKVSNKALPAPIEKTISGGGGSGGGGSGVIINVKCKISRQCLEPCKKAGMRFGKCMNGKCHCTPK (protein) MGGHHHHHHGGGPSVFLFPPKPKDTLMISRTPEVTCVVVDVSHEDPEVKFNWYVDGVEVHNAKTKPREEQYNSTYRVVSVLTVLHQDWLNGKEYKCKVSNKALPAPIEKTISGGGGSGGGGSGVIINVKCKISRQCLEPCKKAGMRFGKCMNGKCHCTPK | 55.2 nM | 38.5 nM | 

Reference: US7825093B2 (priority 2006, dated 2010)
